Experimental data published in patent publication US5081117A (priority 1989, dated 1992).
Where a name gives a salt, the structure may show the parent alone.

Molecular target: T1, acetylcholinesterase (AChE), rat striatum (Rattus norvegicus, UniProt P37136)
T1 construct: corpora striata dissected free, weighed and homogenized in 19 volumes; from tissue; host or cells: homogenate of corpora striata of male Wistar rats
T1 sequence (P37136 32-614): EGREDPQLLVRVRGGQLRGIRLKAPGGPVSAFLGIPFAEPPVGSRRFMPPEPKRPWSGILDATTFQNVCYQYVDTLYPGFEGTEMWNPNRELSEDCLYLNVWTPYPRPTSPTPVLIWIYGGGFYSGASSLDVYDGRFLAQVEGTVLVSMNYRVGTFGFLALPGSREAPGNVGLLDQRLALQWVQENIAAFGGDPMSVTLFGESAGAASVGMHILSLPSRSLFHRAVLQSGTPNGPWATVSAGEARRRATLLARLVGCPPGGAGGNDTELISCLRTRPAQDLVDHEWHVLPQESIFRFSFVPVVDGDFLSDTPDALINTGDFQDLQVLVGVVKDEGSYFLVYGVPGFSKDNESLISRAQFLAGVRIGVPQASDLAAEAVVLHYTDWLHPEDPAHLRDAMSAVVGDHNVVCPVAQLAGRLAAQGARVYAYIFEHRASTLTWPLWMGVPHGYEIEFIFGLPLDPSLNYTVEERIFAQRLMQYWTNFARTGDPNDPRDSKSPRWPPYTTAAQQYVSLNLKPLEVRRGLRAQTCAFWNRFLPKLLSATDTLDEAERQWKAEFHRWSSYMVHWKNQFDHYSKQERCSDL
Assay: In vitro inhibition of acetylcholinesterase activity in rat striatum (modified Ellman method)
Assay type: biochemical, Male Wistar rats
Excerpt: Cholinesterases are found throughout the body, both in the brain and in serum. However, only brain acetylcholinesterase (AChE) distribution is correlated with central cholinergic innervation. […] We have determined in vitro inhibition of acetylcholinesterase activity in rat striatum according to the method described below.
In Vitro Inhibition of Acetylcholinesterase Activity in Rat Striatum
The method described below was used in this invention for assaying anticholinesterase activity. This is a modification of the method of Ellman et al., Biochem. Pharmacol. 7, 88 (1961).
1. 0.05M Phopsphate buffer, pH 7.2
(a) 6.85 g NaH2 PO4 .cndot.H2 O/100 ml distilled H2 O
(c) add (a) to (b) until pH reaches 7.2
(a) 9.9 mg 5,5-dithiobisnitrobenzoic acid (DTNB) (0.25 mM)
(b) 99 mg s-acetylthiocholine chloride (5 mM)
(c) q.s. to 100 ml with 0.05M phosphate buffer, pH 7.2 (reagent 1)
3. For most assays, a 2 mM stock solution of the test drug is made up in a suitable solvent and serially diluted such that the final concentration in the preincubation step ranges from 10^-3 to 10^-6 M. Different concentrations may be used depending on the potency of the drug.
Male Wistar rats are decapitated, brains rapidly removed, corpora striata dissected free, weighed and homogenized in 19 volumes (approximately 7 mg protein/ml) of 0.05M phosphate buffer, pH 7.2 using a Potter-Elvehjem homogenizer. A 50 microliter aliquot of the homogenate is added to 50 microliter vehicle of various concentrations of the test drug and preincubated for 10 minutes at room temperature.
1. For routine IC50 determinations the Abbott Bichromatic Analyzer, ABA-100, is used to determine acetylcholinesterase activity.
Incubation temperature: 30° C.
Reaction direction: down:endpoint
Syringe plate: 1:101 dilution
Following the 10 minute preincubation of the tissue (enzyme) with the inhibitor, the samples are mixed with the substrate chromogen buffer by the ABA-100. Using the indicated instrument settings the ABA-100 automatically reads the color reaction and prints out the results in enzyme units after 15 minutes.
2. The enzyme activity can also be measured with a Gilford 250 spectrophotometer. This method is used for more accurate kinetic measurements.
Reagents are added to the reference and sample side of a split curvette as follows:
The unhibited activity of the enzyme (tissue homogenate) is first determined. Test drugs are made up in a suitable solvent and added in suitable dilutions to the buffer vehicle. The reaction rate is determined by the slope of the recorded absorbance change. The actual rate (moles/liter/min) can be calculated as described in the following formula
rate (moles/liter/min)=slope/(1.36×10^4)

SMILES	IC50 [nM]
CN1CC[C@@]2(C)c3c(OC(=O)NC4CCCCC4)cccc3N(C)[C@@H]12 (relative stereo) [cis-(±)-1,2,3,3a,8,8a-Hexahydro-1,3a,8-trimethylpyrrolo[2,3-b]indol-4-ylcyclohexyl carbamate fumarate]	550
CNC(=O)Oc1cccc2c1[C@]1(C)CCN(C)[C@@H]1N2C (relative stereo) [cis-(±)-1,2,3,3a,8,8a-Hexahydro-1,3a,8-trimethylpyrrolo[2,3-b]indol-4-ylmethylcarbamate fumarate]	60
CN1CC[C@@]2(C)c3ccc(OC(=O)NC4CCCCC4)cc3N(C)[C@@H]12 (relative stereo) [cis-(±)-1,2,3,3a,8,8a-Hexahydro-1,3a,8-trimethylpyrrolo[2,3-b]indol-6-ylcyclohexyl carbamate salicylate]	5500
CNC(=O)Oc1ccc2c(c1)N(C)[C@H]1N(C)CC[C@@]21C (relative stereo) [cis-(±)-1,2,3,3a,8,8a-Hexahydro-1,3a,8-trimethylpyrrolo[2,3-b]indol-6-ylmethylcarbamate salicylate]	230
CNC(=O)Oc1cc2c(cc1Br)[C@]1(C)CCN(C)[C@@H]1N2C (relative stereo) [cis-(±)-5-Bromo-1,2,3,3a,8,8a-hexahydro-1,3a,8-trimethylpyrrolo[2,3-b]indol-6-yl methyl carbamate sesquifumarate]	13
